Assay [1] has as its target Estrogen receptor beta (Homo sapiens) (UniProt Q92731). Briefly: Binding affinity for Estrogen receptor beta compared to estradiol (100%).
Assay [2] has as its target T1, Estrogen receptor (Homo sapiens) (UniProt P03372).
T1 sequence (whole entry): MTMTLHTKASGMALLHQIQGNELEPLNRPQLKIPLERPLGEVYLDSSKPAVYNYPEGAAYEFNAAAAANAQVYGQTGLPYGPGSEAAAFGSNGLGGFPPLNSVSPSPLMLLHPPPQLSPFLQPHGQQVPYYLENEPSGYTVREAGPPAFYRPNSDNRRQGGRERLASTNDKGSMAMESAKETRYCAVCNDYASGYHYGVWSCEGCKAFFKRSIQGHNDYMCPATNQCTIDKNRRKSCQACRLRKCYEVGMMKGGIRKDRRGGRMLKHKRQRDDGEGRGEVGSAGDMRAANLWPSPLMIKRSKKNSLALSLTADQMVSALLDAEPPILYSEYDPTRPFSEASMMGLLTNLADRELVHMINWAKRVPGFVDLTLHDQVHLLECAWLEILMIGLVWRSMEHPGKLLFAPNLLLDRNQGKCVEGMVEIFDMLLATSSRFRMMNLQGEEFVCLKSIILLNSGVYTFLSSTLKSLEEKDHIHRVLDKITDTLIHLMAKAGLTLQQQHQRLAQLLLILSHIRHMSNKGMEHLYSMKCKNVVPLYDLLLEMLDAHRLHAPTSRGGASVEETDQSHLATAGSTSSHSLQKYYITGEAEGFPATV
Briefly: Binding affinity for Estrogen receptor alpha compared to estradiol (100%).

Estrogen receptor beta (Homo sapiens), sequence (Q92731 whole entry): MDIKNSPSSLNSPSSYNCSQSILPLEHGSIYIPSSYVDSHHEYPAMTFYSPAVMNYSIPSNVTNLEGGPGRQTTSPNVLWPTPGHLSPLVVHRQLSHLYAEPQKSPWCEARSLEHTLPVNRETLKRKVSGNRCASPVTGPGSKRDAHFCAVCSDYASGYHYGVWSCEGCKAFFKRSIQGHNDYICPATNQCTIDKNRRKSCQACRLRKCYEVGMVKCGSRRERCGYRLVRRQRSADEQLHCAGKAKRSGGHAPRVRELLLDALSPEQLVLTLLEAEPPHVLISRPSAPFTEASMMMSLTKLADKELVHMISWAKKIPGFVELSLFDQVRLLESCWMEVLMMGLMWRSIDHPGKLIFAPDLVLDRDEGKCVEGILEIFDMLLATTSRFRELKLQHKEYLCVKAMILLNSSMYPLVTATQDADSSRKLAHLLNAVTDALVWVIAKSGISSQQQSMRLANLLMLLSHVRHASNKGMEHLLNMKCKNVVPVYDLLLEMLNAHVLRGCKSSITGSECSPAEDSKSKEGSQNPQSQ

Take `Oc1ccc(-c2c(-c3ccccc3)nn3cc(O)cnc23)cc1`: in assay [1], the Binding affinity came to 0.006%.
With `Oc1cnc2c(-c3ccccc3)c(-c3ccccc3)nn2c1`, in assay [1], the Binding affinity worked out at 0.005%.
On to `Oc1ccc(-c2c(-c3ccccc3)nn3cccnc23)cc1`, for which the Binding affinity turned out to be 0.007% in assay [2] and 0.02% in assay [1].
With `Oc1ccc(-c2nn3cccnc3c2-c2ccccc2)cc1`, the Binding affinity in assay [2] is 0.01%; in assay [1] it was 0.05%.
For the compound `Oc1ccc(-c2nn3cc(O)cnc3c2-c2ccc(O)cc2)cc1`, the Binding affinity in assay [2] is 0.004%; in assay [1], 0.03%.
Consider `Oc1ccc(-c2nn3cc(O)cnc3c2-c2ccccc2)cc1`, for which the Binding affinity is 0.003% in assay [2] and 0.01% in assay [1].
As to `Oc1ccc(-c2nn3cccnc3c2-c2ccc(O)cc2)cc1`, the results for the Binding affinity in assay [2] and in assay [1] were 0.004% and 0.1%, respectively.

For the origin of these results see ChEMBL document CHEMBL1137055, “Pyrazolo[1,5-a]pyrimidines as estrogen receptor ligands: defining the orientation of a novel heterocyclic core” (Bioorg Med Chem Lett, 2004).
